Assay results from ChEMBL document CHEMBL3864124, “Tetrodecamycin: An unusual and interesting tetronate antibiotic” (2016).
Converted amounts (≈) assume the structure as drawn.

How the values were obtained:
Assay type in all cases: functional
[1] = Antibacterial activity against Photobacterium damselae subsp. piscicida after 18 hrs by serial agar dilution method
Staphylococcus aureus [2] = assay: Antibacterial activity against methicillin resistant Staphylococcus aureus […] after 18 hrs by serial agar dilution method
Staphylococcus aureus [3] = assay: Antibacterial activity against Staphylococcus aureus after 18 hrs by serial agar dilution method
Micrococcus luteus = assay: Antibacterial activity against Micrococcus luteus after 18 hrs by serial agar dilution method
Bacillus subtilis = assay: Antibacterial activity against Bacillus subtilis after 18 hrs by serial agar dilution method
Staphylococcus aureus [4] = assay: Antibacterial activity against […] Staphylococcus aureus ATCC 25923 after 18 hrs by serial agar dilution method; settings: ATCC 25923, 18 h

Compound	MIC [1]	MIC (Staphylococcus aureus [2])	MIC (Staphylococcus aureus [4])	also measured
C[C@@H]1[C@@H]2OC3=C(C(=O)OC3CSCCO)C(=O)[C@@]1(C)[C@@H]1CCCC[C@@]1(O)[C@@H]2O (some centres undefined)	6.25 µg/mL (≈ 15.2 µM)	25 µg/mL		
C=C1OC(=O)C2=C1O[C@@H]1[C@@H](O)[C@]3(O)CCCC[C@H]3[C@](C)(C2=O)[C@@H]1C	1.56 to 18.7 µg/mL (≈ 4.67 to 55.9 µM)	18.7 to 37.4 µM		MIC (Staphylococcus aureus [3]): 18.7 to 37.4 µM (≈ 6.25 to 12.5 µg/mL); MIC (Micrococcus luteus): 18.7 to 37.4 µM (≈ 6.25 to 12.5 µg/mL); MIC (Bacillus subtilis): 18.7 to 37.4 µM (≈ 6.25 to 12.5 µg/mL)
C=C1OC(=O)C2=C1O[C@H]1C[C@](C)(CC(O)C1OC(=O)c1ccc3ccccc3c1)C2=O (some centres undefined)			8 µg/mL (≈ 19 µM)	
C=C1OC(=O)C2=C1O[C@@H]1C=CC[C@@](C)(C1)C2=O			4 µg/mL (≈ 17.2 µM)	
CC(=O)NCCCSCC1OC(=O)C2=C1O[C@@H]1[C@@H](O)[C@]3(O)CCCC[C@H]3[C@](C)(C2=O)[C@@H]1C (some centres undefined)	6.25 µg/mL (≈ 13.4 µM)	12.5 µg/mL		
C[C@@H]1[C@@H]2OC3=C(C(=O)OC3(Br)CBr)C(=O)[C@@]1(C)[C@@H]1CCCC[C@@]1(O)[C@@H]2O (some centres undefined)	12.5 µg/mL (≈ 25.3 µM)	> 100 µg/mL		
C=C1OC(=O)C2=C1O[C@H]1C[C@](C)(CC(O)C1O)C2=O (some centres undefined)			> 128 µg/mL	
C=C1OC(=O)C2=C1O[C@@H]1[C@@H](OC(=O)c3ccc4ccccc4c3)[C@]3(O)CCCC[C@H]3[C@](C)(C2=O)[C@@H]1C	> 100 µg/mL	1.61 µM		
C=C1OC(=O)C2=C1O[C@H]1C[C@](C)(CC(OC(=O)c3ccc4ccccc4c3)C1O)C2=O (some centres undefined)			128 µg/mL (≈ 304 µM)	
CC1OC(=O)C2=C1O[C@@H]1[C@@H](O)[C@]3(O)CCCC[C@H]3[C@](C)(C2=O)[C@@H]1C (some centres undefined)	50 µg/mL (≈ 149 µM)	> 100 µg/mL		
